Results as given in patent US4061779A, “Naphthalene derivatives having anti-inflammatory activity” (Beecham Group Limited, priority 1973, dated 1977).
Read-outs that look alike come from different tables or passages of the source.

Assays:
oestrogenicity [1] = assay: Allen-Doisy Test, oestrogenic activity (mouse); assay type: in vivo
Source text: (§1) Using a conventional Allen-Doisy Test, the Oestrogenic activity of certain compounds of the invention was ascertained. The anti-inflammatory activity of certain compounds of the invention was ascertained by using a standard Rat Paw Carrageenin Test.

Rat Paw Carrageenin = assay: standard Rat Paw Carrageenin Test, anti-inflammatory activity; assay type: in vivo
Source text: as §1

oestrogenicity [2] = assay: Allen-Doisy Test, oestrogenic activity (rat); assay type: in vivo
Source text: as §1

[3] = test system: Carrageenin Induced Oedema; assay: Carrageenin Induced Oedema in Rats; assay type: in vivo, rat
Source text: a. Carrageenin Induced Oedema in Rats

UV Induced Erythrema = UV Induced Erythrema in Guinea Pigs; assay type: in vivo, guinea pig; details: Cavia porcellus, po
Source text: b. UV Induced Erythrema in Guinea Pigs

[4] = test system: Cotton Pellet Induced Granuloma; assay: Cotton Pellet Induced Granuloma in Rats; assay type: in vivo, rat; details: 50 mg/kg p.o., day 0 to 5 days
Experimental: c. Cotton Pellet Induced Granuloma in Rats
Consistent activity (reducing induced granuloma by more than 30%) has been observed at 50 mg/kg p.o. dosed from day 0 to 5 days.

Adjuvant arthritis = assay: Adjuvant Arthritis in Rats; assay type: in vivo, rat; details: 60 mg/kg p.o. daily
Experimental: d. Adjurant Arthritis in Rats
Adjuvant arthritis is reduced in rats by the daily administration of doses of 60 mg/kg p.o.

[5] = test system: cultured mouse peritoneal macrophages; assay: Macrophage Plasminogen Activator Release Test; assay type: cell-based; details: 1 mg/ml
Source text: e. Macrophage Plasmongen Activator Release Test
On the test system of J. D. Vassalli et al., Cell, 8, 271-281 (1976), the compound […] caused 90% inhibition of the release of plasmogen activator from cultured mouse peritoneal macrophages.

[6] = test system: Phenyl-p-quinone Induced Writhing; assay: Phenyl-p-quinone Induced Writhing in Mice; assay type: in vivo; details: Mus musculus, po, read-out: ED50 for analgesic activity
Source text: f. Phenyl-p-quinone Induced Writhing in Mice

[7] = test system: pyresis induced by Shigella endotoxin; assay: Anti-pyretic Effect in Rabbits; assay type: in vivo, rabbit; details: doses down to 100 mg/kg p.o.
Source text: g. Anti-pyretic Effect in Rabbits

[8] = test system: release of corticosteroids from the adrenal gland; assay: Interactions with the Adrenal/Pituitary Axis; assay type: in vivo; details: 140 mg/kg p.o./day, five days
Source text: h. Interactions with the Adrenal/Pitutary Axis

uterine weight = assay: Oestrogenic Test in Rats (ovariectomised rats, uterine weight); assay type: in vivo, rat; details: 200 mg/kg p.o. and 600 mg/kg p.o., 4 days
Source text: i. Oestrogenic Test in Rats

[9] = test system: seminal vesicles, prostate gland or levator ani muscles; assay: Anabolic/Androgenic Activity in Rats; assay type: in vivo, rat; details: 200 mg/kg p.o.
Source text: j. Anabolic/Adrogenic Activity in Rats

endometrium = assay: Gestagenic Activity in Rabbits (Clauberg test); assay type: in vivo, rabbit; details: 200 mg/kg p.o., 4 days
Source text: k. Gestagenic Activity in Rabbits

[10] = test system: gastric secretion / gastric damage; assay: Gastric Damage in Pyloric Ligated Rats; assay type: in vivo; details: up to 200 mg/kg intra-duodenally, pyloric ligated rat
Source text: 1. Gastric Damage in Pyloric Ligated Rats

[11] = test system: gastric erosions or ulceration; assay: Ulcerogenic Activity in Rats; assay type: in vivo, rat; details: 250 or 500 mg/kg p.o.
Source text: m. Ulcerogenic Activity in Rats.

[12] = General statements on gastro-intestinal irritation, oestrogenicity and anti-inflammatory activity; assay type: in vivo
gastro intestinal tract = assay: Long term toxicity tests, gastro-intestinal tolerance; assay type: in vivo, rat; details: 180 mg/kg p.o. for 28 days

Which “Oestrogenicity, Allan-Doisy test” value (oestrogenicity [1]; 100 mg/kg sub.cut.) does the source give for `COc1ccc2cc(/C(C)=C/C(C)=O)ccc2c1` [trans-4-(6'-methoxy-2'-naphthyl)-pent-3-ene-2-one] here?
The value was “Inactive”.

What about the “Anti-inflammatory, rat carrageenan” value (Rat Paw Carrageenin; 100 mg/kg orally) of the same molecule?
The value was “Active”.

With `COc1ccc2cc(C(C)C(C)=O)ccc2c1` (centres unmarked) [3-(6'-methoxy-2'-naphthyl)-butan-2-one, 3-(6'-methoxy-2'-napthyl)-butan-2-one] as the molecule, how does the “Oestrogenicity, Allan-Doisy test” value (oestrogenicity [1]; 50 mg/kg sub.cut.) read?
The value was “Inactive”.

And the “Oestrogenicity, Allan-Doisy test” value (oestrogenicity [2]; 600 mg/kg orally)?
The value was “Inactive”.

And the “Anti-inflammatory, rat carrageenan” value (Rat Paw Carrageenin; 100 mg/kg orally)?
The value was “Active”.

For `COc1ccc2cc(C(C)C(C)(O)C(C)=O)ccc2c1` (centres unmarked) [3-hydroxy-3-methyl-4-(6'-methoxy-2'-naphthyl)-pentan-2-one], which “Oestrogenicity, Allan-Doisy test” value (oestrogenicity [1]; 100 mg/kg sub.cut.) is on record?
Its value is “Active”.

And the “Anti-inflammatory, rat carrageenan” value (Rat Paw Carrageenin; 50 and 100 mg/kg orally)?
Its value is “Active”.

For `COc1ccc2cc(C=CC(C)=O)ccc2c1` [4-(6-Methoxy-2-naphthyl)-3-buten-2-one], which “Oestrogenicity, Allan-Doisy test” value (oestrogenicity [2]; 300 mg/kg orally) is on record?
Its value is “Inactive”.

What about the “Anti-inflammatory, rat carrageenan” value (Rat Paw Carrageenin; 300 mg/kg orally) of the same molecule?
Its value is “Active”.

Which results are given for `COc1ccc2cc(CCC(C)=O)ccc2c1` [4-(6'-methoxy-2'-naphthyl)butan-2-one]?
reduction in induced oedema volume ([3]; 5, 10, 35 and 70 mg/kg p.o.): significant reduction; ED25 ([3]; Rattus norvegicus, po, rats): 7 to 10 mg/kg; Activity in adrenalectomised rats ([3]; adrenalectomised rats): Activity is maintained; ED50 (UV Induced Erythrema): 9 to 15 mg/kg; changes in body weight or in weight of spleen, thymus, kidney, liver or adrenal glands [4]: not accompanied by marked changes; Adjuvant arthritis (Adjuvant arthritis): reduced; inhibition of the release of plasminogen activator [5]: slight inhibition; ED50 ([6]; mice): ~110 mg/kg; reduction of pyresis induced by intravenous Shigella endotoxin [7]: reduced pyresis; interference with release of corticosteroids in response to ACTH administration or to ether stress [8]: does not interfere; increase in uterine weight (uterine weight): did not result in any increase in uterine weight; increase in weight of seminal vesicles, prostate gland or levator ani muscles ([9]; 4 days, castrated young male rats): did not result in any increase; interference with androgenic/anabolic activity of concomitantly administered testosterone ([9]; testosterone 1 mg/kg s.c.): did not interfere; uterine hypertrophy or progestational changes in the endometrium (endometrium): did not result in uterine hypertrophy or progestational changes in the endometrium; overt gastric damage [10]: nor did overt gastric damage result; systemically mediated effect on the volume of gastric secretion [10]: have not been found to have a systemically mediated effect; gastric erosions, longer contact times ([11]; longer than 4 hours): in some cases to some degree of erosions; gastric erosions or ulceration ([11]; rats starved 18 hours, 1 or 4 hours after dosing): did not give rise to gastric erosions or ulceration; oestrogenic effects or gastric-irritant effects ([12]; at the therapeutic dose): not causing either oestrogenic effects or pronounced gastric-irritant effects; anti-inflammatory activity ([12]; general statement): good spectrum of anti-inflammatory activity; anti-pyretic and analgesic activity ([12]; general statement): anti-pyretic and analgesic activity; hormone like activity ([12]; general statement): free of hormone like activity; therapeutic ratio based on gastro intestinal irritancy ([12]; general statement): good therapeutic ratio; gastro intestinal tolerance (gastro intestinal tract): well tolerated

What does the source list for `CCC(c1ccc2cc(OC)ccc2c1)C(C)(O)C(C)=O` (centres unmarked) [3-hydroxy-3-methyl-4-(6'-methoxy-2'-naphthyl)-hexan-2-one]?
Oestrogenicity, Allan-Doisy test (oestrogenicity [1]; 50 mg/kg sub.cut.): Active; Anti-inflammatory, rat carrageenan (Rat Paw Carrageenin; 100 mg/kg orally): Inactive

What does the source list for `COc1ccc2cc(C(C)CC(C)=O)ccc2c1` (centres unmarked) [4-(6'-methoxy-2'-naphthyl)-pentan-2-one]?
Oestrogenicity, Allan-Doisy test (oestrogenicity [2]; 200 mg/kg orally): Inactive; Oestrogenicity, Allan-Doisy test (oestrogenicity [2]; 300 mg/kg orally): Active; Anti-inflammatory, rat carrageenan (Rat Paw Carrageenin; 50 mg/kg orally): Slightly Active; Anti-inflammatory, rat carrageenan (Rat Paw Carrageenin; 100 mg/kg orally, 1 hr. after dosing): Active; Anti-inflammatory, rat carrageenan (Rat Paw Carrageenin; 300 mg/kg orally): Active

For `CC(=O)Oc1ccccc1C(=O)O` [ASPIRIN, acetylsalicylic acid, reference compound], which ED50 [6] is on record?
Its ED50 is about 60 mg/kg.
